Counter-ions that a name gives are not always drawn.
Assays:
Assay type in all cases: cell-based
[1] = system: NCI-H1975 cells (T790M and L858R EGFR mutations); assay: Cell growth inhibition (Cell Titer-Glo), NCI-H1975; settings: Homo sapiens, 72 hours drug treatment, 0.03 nM to 100 nM
Protocol: (§1) Experiment of Cell Growth Inhibition
(§2) The LoVo cell line is a wild-type EGFR human colon adenocarcinoma cell, and is grown in F-12K medium (GIBCO) containing 10% FBS. NCI-H2073 cell line is a wild-type EGFR human non-small cell lung cancer cell and grown in ACL-4 medium containing 10% FBS. The growth rate of NCI-H1975, LoVo and NCI-H2073 cells was detected by Cell Titer-Glo luminescence activity assay (Promega #G7572).
(§3) Briefly, trypsin was used for digesting cells in the logarithmic growth phase. 96-well plates were seeded with 50,000 Lovo or NCI-H2073 cells, 2500-3000 NCI-H1975 cells per well and provided with blank control wells containing only nutrient solution without inoculated cell, and the plates were incubated in a humidified incubator with 5% CO2 at 37° C. […] The concentration of test drug in NCI-H1975 cells was from 0.03 nM to 100 nM, and that in LoVo and NCI-H2073 cells was from 3 nM to 10 μM. The cell culture medium containing the different compounds was then added to a 96-well cell plate in which one cell control well comprising cell culture medium only containing DMSO was provided. After a drug treatment for 72 hours, the cell plates were removed from the incubator and allowed to stand at room temperature for 30 minutes. Next, Cell Titer-Glo reagent was added to the wells and the 96-well cell plate was shaken at room temperature for 10 minutes to induce cell lysis. The 96-well cell plate was placed on the bench for 2 minutes to stabilize the luminescence signal. Finally, the 96-well cell plate was placed in an EnVision Multi-labeled Microplate Reader (PerkinElmer), and the signal was read with an integral time of 0.5 seconds.
(§4) Formula: Percentage of cell growth inhibition %=(maximum signal−compound signal)/(maximum signal−minimum signal)*100%
(§5) The maximal signal was obtained from the cell control well which were treated with the DMSO solution having no any compound;
(§6) The compound signal was obtained from the drug-treated cell wells to which the compound was added;
(§7) The minimum signal was obtained from a blank control well to which no cells and only nutrient solution was added.

[2] = system: NCI-H2073 cells (wild-type EGFR human non-small cell lung cancer); assay: Cell growth inhibition (Cell Titer-Glo), NCI-H2073; settings: 72 hours drug treatment, 3 nM to 10 μM
Protocol: as §1
as §2, with “The compounds that were preferentially targeted for EGFR targeting certain mutations and relatively weak in wild-type EGFR were identified by determining the growth of cells. The NCI-H1975 cell line is a human non-small cell lung cancer cell containing T790M and L858R EGFR mutations, and the cell is grown in RPMI-1640 medium (GIBCO) containing 10% fetal bovine serum (FBS). The LoVo” for “The LoVo”
Briefly, trypsin was used for digesting cells in the logarithmic growth phase. 96-well plates were seeded with 50,000 Lovo or NCI-H2073 cells, 2500-3000 NCI-H1975 cells per well and provided with blank control wells containing only nutrient solution without inoculated cell, and the plates were incubated in a humidified incubator with 5% CO2 at 37° C. After 24 hours, the DMSO solution of the different compounds was diluted with a cell culture medium at 3.16 times per time to eight different concentrations from high to low levels. The concentration of test drug in NCI-H1975 cells was from 0.03 nM to 100 nM, and that in LoVo and NCI-H2073 cells was from 3 nM to 10 μM. The cell culture medium containing the different compounds was then added to a 96-well cell plate in which one cell control well comprising cell culture medium only containing DMSO was provided. After a drug treatment for 72 hours, the cell plates were removed from the incubator and allowed to stand at room temperature for 30 minutes. Next, Cell Titer-Glo reagent was added to the wells and the 96-well cell plate was shaken at room temperature for 10 minutes to induce cell lysis. The 96-well cell plate was placed on the bench for 2 minutes to stabilize the luminescence signal. Finally, the 96-well cell plate was placed in an EnVision Multi-labeled Microplate Reader (PerkinElmer), and the signal was read with an integral time of 0.5 seconds.
as §4, §5, §6, §7

[3] = system: LoVo cells (wild-type EGFR human colon adenocarcinoma); assay: Cell growth inhibition (Cell Titer-Glo), LoVo; settings: 72 hours drug treatment, 3 nM to 10 μM
Protocol: as §1, §2, §3, §4, §5, §6, §7

SMILES	IC50 [1] [nM]	IC50 [2] [nM]	IC50 [3] [nM]
C=CC(=O)Nc1cc(Nc2nccc(-n3cc(S(C)(=O)=O)c4ccccc43)n2)c(OC)cc1N(C)CCN(C)C [112. (MsOH)2]	100	5420	–
[2H]C([2H])([2H])N(CCN(C)c1cc(OC)c(Nc2nccc(N3CC(C)(C)c4ccccc43)n2)cc1NC(=O)C=C)C([2H])([2H])[2H] [57. (HCl)n]	8.2	280	–
[2H]C([2H])([2H])N(CCN(C)c1cc(OC)c(Nc2nccc(N3CCc4ccccc43)n2)cc1NC(=O)C=C)C([2H])([2H])[2H] [62. (HCl)n]	3.2	270	–
C=CC(=O)Nc1cc(Nc2nccc(-n3nc(C)c4ccccc43)n2)c(OC)cc1N(C)CCN(C)C [55. (HCl)n]	> 100	–	3230
C=CC(=O)Nc1cc(Nc2nccc(-n3c(=O)n(CC)c4ccccc43)n2)c(OC)cc1N(C)CCN(C)C [66. (MsOH)3]	3.6	201	–
C=CC(=O)Nc1cc(Nc2nccc(-n3c(=O)n(CC(F)F)c4ccccc43)n2)c(OC)cc1N(C)CCN(C)C [109. (MsOH)2]	4.5	268	–
C=CC(=O)Nc1cc(Nc2nccc(-c3cn(C)c4ccccc34)n2)c(OC)cc1OCCOC [32. (MsOH)]	> 100	–	> 10000
C=CC(=O)Nc1cc(Nc2nccc(N3c4ccccc4N(C)S3(=O)=O)n2)c(OC)cc1N(C)CCN(C)C [110. (MsOH)2]	2.9	103	–
[2H]C([2H])([2H])N(CCN(C)C)c1cc(OC)c(Nc2nccc(-c3cn(CC)c4ccccc34)n2)cc1NC(=O)C=C [73. (MsOH)2]	1.7	179	–
[2H]C([2H])([2H])N(CCN(C)C)c1cc(OC)c(Nc2nccc(-n3nnc4ccccc43)n2)cc1NC(=O)C=C [74. (MsOH)3]	14.4	463	–
C=CC(=O)Nc1cc(Nc2nccc(-c3cn(S(=O)(=O)CC)c4ccccc34)n2)c(OC)cc1N(C)CCN(C)C [101. (MsOH)2]	5.5	193	–
[2H]C([2H])([2H])N(CCN(C)c1cc(OC)c(Nc2nccc(-c3cn(S(C)(=O)=O)c4ccccc34)n2)cc1NC(=O)C=C)C([2H])([2H])[2H] [70. (MsOH)2]	0.5	46	–
C=CC(=O)Nc1cc(Nc2cc(-c3cn(C)c4ccccc34)ccn2)c(OC)cc1N(C)CCN(C)C [43. (HCl)n]	18.1	–	2170
[2H]C([2H])([2H])n1c(=O)n(-c2ccnc(Nc3cc(NC(=O)C=C)c(N(C)CCN(C)C)cc3OC)n2)c2ccccc21 [65. (MsOH)2]	1.9	151	–
[2H]C([2H])([2H])N(CCN(C)c1cc(OC)c(Nc2nccc(-n3cc(C)c4ccccc43)n2)cc1NC(=O)C=C)C([2H])([2H])[2H] [63. (HCl)n]	4.8	410	–
C=CS(=O)(=O)Nc1cc(Nc2nccc(-c3cn(C)c4ccccc34)n2)c(OC)cc1N(C)CCN(C)C [45. (HCl)n]	> 100	–	1090
C=CS(=O)(=O)Nc1cc(Nc2nccc(-c3cn(C)c4ccccc34)n2)c(OC)cc1N(C)CCN1CCCC1 [46. (MsOH)2]	155	–	1170
C=CC(=O)Nc1cc(Nc2nccc(-c3cn(C)c4ccccc34)n2)c(OC)cc1N(CCOC)CCOC [33. HCl]	> 100	–	1430
C=CC(=O)Nc1cc(Nc2nccc(N3CCCc4ccccc43)n2)c(OC)cc1N(C)CCN(C)C [35. (MsOH)3]	48.4	–	912
C=CC(=O)Nc1cc(Nc2nccc(-c3cn(C)c4ccccc34)n2)c(OC)cc1N(C)CCN(C)CCOC [54. (HCl)n]	38.2	–	738

Next, values leading:

IC50 [1] [nM]	IC50 [2] [nM]	IC50 [3] [nM]	SMILES
> 100	–	481	C=CC(=O)Nc1cc(Nc2nccc(-c3cn(C)c4ccccc34)n2)c(OC)cc1N1CCC(N2CCC2)CC1 [14. (MsOH)2]
> 100	–	846	C=CC(=O)Nc1cc(Nc2nccc(-c3cn(C)c4ccccc34)n2)c(OC)cc1OCCN1CCN(C)CC1 [31. (MsOH)3]
> 100	–	> 10000	C=CC(=O)Nc1cc(Nc2nccc(-c3cn(C)c4ccccc34)n2)c(OC)cc1N1CC(OC)C1 [21. (MsOH)2]
35.4	–	1270	C=CC(=O)Nc1cc(Nc2nccc(-c3cn(C)c4ccccc34)n2)c(OC)cc1N(C)CCN1CCC1 [11. (MsOH)2]
48.5	–	955	C=CC(=O)Nc1cc(Nc2nccc(-c3cn(C)c4ccccc34)n2)c(OC)cc1N1CCC(N2CCCC2)C1 (stereo not drawn) [19. MsOH]
> 100	–	2580	C=CC(=O)Nc1cc(Nc2nccc(-c3cn(C)c4ccccc34)n2)c(OC)cc1N1CC(N2CCN(C)CC2)C1 [24. (MsOH)3]
90.8	–	2280	C=CC(=O)Nc1cc(Nc2nccc(-c3cn(C)c4ccccc34)n2)c(OC)cc1N1CC(N2CCCC2)C1 [Example 23]
84	–	1810	C=CC(=O)Nc1cc(Nc2nccc(-c3cn(C)c4ccccc34)n2)c(OC)cc1N1CCC(N2CCOCC2)CC1 [27. (MsOH)3]
134	–	1620	C=CC(=O)Nc1cc(Nc2nccc(-c3cn(C)c4ccccc34)n2)c(OC)cc1N(C)CCCN(C)C [47. (MsOH)2]
> 100	–	333	C=CC(=O)Nc1cc(Nc2nccc(-c3cn(C)c4ccccc34)n2)c(OC)cc1N1CCC(N2CCCC2)CC1 [15. (MsOH)2]
> 100	–	444	C=CC(=O)Nc1cc(Nc2nccc(-c3cn(C)c4ccccc34)n2)c(OC)cc1N1CCC(N(C)C)CC1 [13. (MsOH)2]
> 100	–	4980	C=CC(=O)Nc1cc(Nc2nccc(-c3cn(C)c4ccccc34)n2)c(OC)cc1N(C)CCOC [6. (HCl)n]
> 100	–	954	C=CC(=O)Nc1cc(Nc2nccc(-c3cn(C)c4ccccc34)n2)c(OC)cc1N1CCC(N2CCN(C)CC2)C1 (stereo not drawn) [20. (MsOH)4]
> 100	–	5250	C=CC(=O)Nc1cc(Nc2nccc(-c3cn(C)c4ccccc34)n2)c(OC)cc1N1CC(N2CCOCC2)C1 [25. (MsOH)2]
> 100	–	2550	C=CC(=O)Nc1cc(Nc2nccc(-c3cn(C)c4ccccc34)n2)c(OC)cc1OCCN1CCOCC1 [30. (MsOH)2]
> 100	–	538	C=CC(=O)Nc1cc(Nc2nccc(-c3cn(C)c4ccccc34)n2)c(OC)cc1OC1CN(C)C1 [Example 28]
35.2	–	1720	C=CC(=O)Nc1cc(Nc2nccc(-c3cn(C)c4ccccc34)n2)c(OC)cc1N(C)CCN1CCCC1 [12. (MsOH)2]
> 100	–	> 10000	C=CC(=O)Nc1cc(Nc2nccc(-c3cn(C)c4ccccc34)n2)c(OC)cc1N1CCC(OC)C1 (stereo not drawn) [17. (MsOH)2]
43.6	–	520	C=CC(=O)Nc1cc(Nc2nccc(-c3cn(C)c4ccccc34)n2)c(OC)cc1N1CCC(N2CCC2)C1 (stereo not drawn) [18. (MsOH)3]
> 100	–	3020	C=CC(=O)Nc1cc(Nc2nccc(-c3cn(C)c4ccccc34)n2)c(OC)cc1N(C)CCS(C)(=O)=O [10. (MsOH)3]
39.9	–	446	C=CC(=O)Nc1cc(Nc2nccc(-c3cn(C)c4ccccc34)n2)c(OC)cc1N1CCCC(N(C)C)C1 (stereo not drawn) [34. (MsOH)3]
> 100	–	5130	C=CC(=O)Nc1cc(Nc2nccc(-c3cn(C)c4ccccc34)n2)c(OC)cc1N1CCC(N2CCOCC2)C1 (stereo not drawn) [26. (MsOH)2]

— patent US11498921B1, “Pyrimidine or pyridine compounds, preparation method therefor and pharmaceutical uses thereof” (INVENTISBIO CO., LTD., priority 2014, dated 2022)
